Laboratory results taken from PubChem BioAssay AID2060607 (Molecular Pharmacology Branch, DTP, NCI, 2025).

System: 876862-298-R-J1-PDC complex spheroids, viability % test/control
Assay: Anticancer human tumor 876862-298-R-J1-PDC patient-derived endometrial carcinoma cell line growth inhibition [CLK]
Conditions: for IC50: curve of first compound; for viability, T/C: stronger effect = lower value
Excerpt: A high-throughput screen of multi-cell type tumor spheroids was designed to identify active combinations of […] and targeted small molecules. Complex spheroids include a stromal component modeled by human endothelial cells (HUVEC) and fibroblasts modeled by human mesenchymal stem cells (MSCs). The concentration ranges selected for each drug and investigational agent were based upon clinically achievable concentrations if the clinical Cmax of the agent was known.
Compounds. The drugs and investigational agents: cirtuvivint (SM08502; NSC835563), CC-671 (NSC850746), vemurafenib (NSC761431), tapotoclax (NSC804041), sotorasib (NSC818433), adagrasib (NSC831453), MRTX-1133 (NSC836407), BAY2416964 (NSC825713), copanlisib (NSC816437), inavolisib (NSC800729), abemaciclib (NSC768073), osimertinib (NSC779217), entinostat (NSC756642), eltanexor (KPT-8602, NSC794443), venetoclax (NSC766270), ceralasertib (NSC777638), bortezomib (NSC756655), olaparib (NSC753686), talazoparib (NSC767125), alisertib (NSC759677), peposertib (NSC802822), gemcitabine (NSC613327), 5-fluorouracil (NSC19893), SN-38 (NSC673596), oxaliplatin (NSC266046), paclitaxel (NSC125973), and doxorubicin (NSC123127), were obtained from the National Cancer Institute (NCI) Developmental Therapeutics Program Chemical Repository. The FDA-approved anticancer drug set is available from the Developmental Therapeutics Program at https://dtp.cancer.gov/organization/dscb/obtaining/available plates.htm. […] The stock solutions were prepared in dimethyl sulfoxide (DMSO, Sigma-Aldrich, St. Louis, MO, cat. D2650), except for the platinum complexes which were prepared in saline (Quality Biological, Gaithersburg, MD, cat. 114-055-101), at 800-fold the tested concentration and stored at -70 degrees C prior to their use. All drugs and investigational agents were tested over a range starting from a high concentration at or near the clinical Cmax and decreasing in half-log increments. If the clinical Cmax for an agent had not been determined, the highest concentration tested was 10 microM.
Cell Culture. All cells were maintained in an incubator at 37 degrees C and 5% CO2 with 95% humidity. The PDC lines were cultured according to standard operating procedures established by the NCI PDMR. Briefly, all PDCs were thawed and cultured in Matrigel-coated flasks prepared with a working solution of 1X Ham's F-12 nutrient mix, without supplementation (Invitrogen, Waltham, MA, cat. 11765054), 100 U/mL penicillin-streptomycin (Invitrogen, cat. 15140122), and 2.5% Matrigel (Corning Inc., Corning, NY, cat. 354248) for the first three passages. The 947758-054-R-J2-PDC line was cultured in 6B/Colon 1A media, which includes advanced DMEM/F-12 (Thermo Fisher Scientific, cat. 12634028), 10 mM HEPES (Thermo Fisher Scientific, cat. 15630080), 1X GlutaMAX supplement (Thermo Fisher Scientific, cat. 35050061), 0.1 mg/mL primocin (InvivoGen, cat. ant-pm-2), 10% defined fetal bovine serum, heat inactivated (HyClone Laboratories Inc., cat. SH30070.03HI), 1.25 mM N-Acetyl-L-cysteine (Sigma-Aldrich, cat. A9165), 10 mM nicotinamide (Sigma-Aldrich, cat. N0636), 1X B-27 supplement (Thermo Fisher Scientific, cat. 17504044), 1X N-2 supplement (Thermo Fisher Scientific, cat. 17502048), and 10 microM Y-27632 dihydrochloride (Tocris Bioscience, cat. 1254). The 876862-298-R-J1-PDC was cultured in 6E media, which includes all 6B/Colon 1A media components plus 50% L-WRN conditioned media (ATCC, cat. CRL-3276), 50 ng/mL recombinant human EGF recombinant protein (hEGF; Thermo Fisher Scientific, cat. PHG0311), 10 ng/mL recombinant human fibroblast growth factor 10 (hGFG-10; PeproTech, cat. 100-26), 1 ng/mL recombinant human fibroblast growth factor 2 (hFGF-2; PeproTech, cat. 100-18B), and 1 µM prostaglandin E2 (PGE2; Tocris, cat. 2296). The 227483-062-R1-J1-PDC line was cultured in Panc media, containing all 6E components except hFGF-2, with the addition of 500 nM SB-431542 (Selleckchem, cat. S1067) and 10 nM gastrin (Tocris, cat. 3006). […]

[1] = second compound 0.0316 µM, first compound 0.0316 µM
[2] = second compound 0.0316 µM, first compound 0.1 µM
[3] = second compound 0.0316 µM, first compound 0.316 µM
[4] = second compound 0.0316 µM, first compound 1 µM
[5] = second compound 0.0316 µM, first compound 3.16 µM
[6] = second compound 0.0316 µM, first compound 10 µM
[7] = second compound 0.1 µM, first compound 0.0316 µM
[8] = second compound 0.1 µM, first compound 0.1 µM
[9] = second compound 0.1 µM, first compound 0.316 µM
[10] = second compound 0.1 µM, first compound 1 µM
[11] = second compound 0.1 µM, first compound 3.16 µM
[12] = second compound 0.1 µM, first compound 10 µM
[13] = second compound 0.316 µM, first compound 0.0316 µM
[14] = second compound 0.316 µM, first compound 0.1 µM
[15] = second compound 0.316 µM, first compound 0.316 µM
[16] = second compound 0.316 µM, first compound 1 µM
[17] = second compound 0.316 µM, first compound 3.16 µM
[18] = second compound 0.316 µM, first compound 10 µM
[19] = second compound 1 µM, first compound 0.0316 µM
[20] = second compound 1 µM, first compound 0.1 µM
[21] = second compound 1 µM, first compound 0.316 µM
[22] = second compound 1 µM, first compound 1 µM
[23] = second compound 1 µM, first compound 3.16 µM
[24] = second compound 1 µM, first compound 10 µM
[25] = second compound 3.16 µM, first compound 0.0316 µM
[26] = second compound 3.16 µM, first compound 0.1 µM
[27] = second compound 3.16 µM, first compound 0.316 µM
[28] = second compound 3.16 µM, first compound 1 µM
[29] = second compound 3.16 µM, first compound 3.16 µM
[30] = second compound 3.16 µM, first compound 10 µM
[31] = second compound 10 µM, first compound 0.0316 µM
[32] = second compound 10 µM, first compound 0.1 µM
[33] = second compound 10 µM, first compound 0.316 µM
[34] = second compound 10 µM, first compound 1 µM
[35] = second compound 10 µM, first compound 3.16 µM
[36] = second compound 10 µM, first compound 10 µM
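Note: spheroids exposed to drugs for 7 days before readout.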
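Throughout, for viability, T/C: 100% = DMSO vehicle control wells.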

## CCCS(=O)(=O)Nc1ccc(F)c(C(=O)c2c[nH]c3ncc(-c4ccc(Cl)cc4)cc23)c1F + CN1CCN(c2cc(C(=O)Nc3cc4cc(-c5cnn(C)c5)ccc4cn3)ccn2)CC1
Second compound 0.0316 µM
  IC50: 6760 nM
Second compound 0.1 µM
  IC50: 974 nM
Second compound 0.316 µM
  IC50: < 31.6 nM
Second compound 1 µM
  IC50: < 31.6 nM
Second compound 3.16 µM
  IC50: < 31.6 nM
Second compound 10 µM
  IC50: < 31.6 nM
[1]
  viability, T/C: 103%
[2]
  viability, T/C: 93.4%
[3]
  viability, T/C: 89.2%
[4]
  viability, T/C: 101%
[5]
  viability, T/C: 77.1%
[6]
  viability, T/C: 36.1%
[7]
  viability, T/C: 63.4%
[8]
  viability, T/C: 51.6%
[9]
  viability, T/C: 53.1%
[10]
  viability, T/C: 50.7%
[11]
  viability, T/C: 42.2%
[12]
  viability, T/C: 22.5%
[13]
  viability, T/C: 4.72%
[14]
  viability, T/C: 3.82%
[15]
  viability, T/C: 5.6%
[16]
  viability, T/C: 5.09%
[17]
  viability, T/C: 5.93%
[18]
  viability, T/C: 3.83%
[19]
  viability, T/C: 0.82%
[20]
  viability, T/C: 1.88%
[21]
  viability, T/C: 1.54%
[22]
  viability, T/C: 2.17%
[23]
  viability, T/C: 3.28%
[24]
  viability, T/C: 1.25%
[25]
  viability, T/C: 1.32%
[26]
  viability, T/C: 2.22%
[27]
  viability, T/C: 9.57%
[28]
  viability, T/C: 1.58%
[29]
  viability, T/C: 2.88%
[30]
  viability, T/C: 2.88%
[31]
  viability, T/C: 1.06%
[32]
  viability, T/C: 1.12%
[33]
  viability, T/C: 1.23%
[34]
  viability, T/C: 10.9%
[35]
  viability, T/C: 7.9%
[36]
  viability, T/C: 2.22%

## COC1C=CCC(C)C(C)S(=O)(=O)NC(=O)c2ccc3c(c2)N(CC2CCC21)CC1(CCCc2cc(Cl)ccc21)CO3 (centres undefined) + CN1CCN(c2cc(C(=O)Nc3cc4cc(-c5cnn(C)c5)ccc4cn3)ccn2)CC1
Second compound 0.0316 µM
  IC50: 7390 nM
Second compound 0.1 µM
  IC50: 212 nM
Second compound 0.316 µM
  IC50: < 31.6 nM
Second compound 1 µM
  IC50: < 31.6 nM
Second compound 3.16 µM
  IC50: < 31.6 nM
Second compound 10 µM
  IC50: < 31.6 nM
[1]
  viability, T/C: 93.9%
[2]
  viability, T/C: 96.6%
[3]
  viability, T/C: 97.6%
[4]
  viability, T/C: 96.3%
[5]
  viability, T/C: 96.7%
[6]
  viability, T/C: 33.5%
[7]
  viability, T/C: 56.9%
[8]
  viability, T/C: 51.1%
[9]
  viability, T/C: 47.6%
[10]
  viability, T/C: 39%
[11]
  viability, T/C: 38.6%
[12]
  viability, T/C: 18.8%
[13]
  viability, T/C: 4.28%
[14]
  viability, T/C: 3.17%
[15]
  viability, T/C: 2.26%
[16]
  viability, T/C: 1.91%
[17]
  viability, T/C: 1.34%
[18]
  viability, T/C: 0.56%
[19]
  viability, T/C: 0.93%
[20]
  viability, T/C: 0.64%
[21]
  viability, T/C: 25.5%
[22]
  viability, T/C: 0.78%
[23]
  viability, T/C: 25.2%
[24]
  viability, T/C: 2.2%
[25]
  viability, T/C: 1.34%
[26]
  viability, T/C: 1.14%
[27]
  viability, T/C: 1.59%
[28]
  viability, T/C: 1.26%
[29]
  viability, T/C: 1.14%
[30]
  viability, T/C: 0.26%
[31]
  viability, T/C: 1.69%
[32]
  viability, T/C: 1.52%
[33]
  viability, T/C: 2.33%
[34]
  viability, T/C: 26.3%
[35]
  viability, T/C: 1.84%
[36]
  viability, T/C: 1.78%
